The results in this text go back to patent US20240383915A1, “OXAZEPINE COMPOUNDS AND USES THEREOF IN THE TREATMENT OF CANCER” (Genentech, Inc., priority 2021, published 2024).

The target in assay [1] is KRas(G12V) (Homo sapiens (Human), UniProt P01116, G12V). Put plainly: KRas(G12V) GDP HTRF (BODIPY-GDP exchange TR-FRET). The assay is classed as biochemical. On the technique in general: TR-FRET usually uses a lanthanide donor and a delayed reading to cut background.
Assay [2] deals with KRas (Homo sapiens (Human), UniProt P01116). Description: KRas GDP HTRF (BODIPY-GDP exchange TR-FRET). The assay is classed as biochemical. The protocol: KRAS Biochemical Assay—BODIPY-GDP Exchange TR-FRET. Biochemical compound potencies were assessed by evaluating inhibition of SOS1-mediated nucleotide exchange in KRAS G12D. The SOS1-promoted exchange of fluorescently-labeled GDP (BODIPY-GDP) was monitored by time-resolved fluorescence resonance energy transfer (TR-FRET). Compounds solubilized in DMSO were dispensed as concentration series into 384-well white assay plates. […] The reaction was initiated with the addition of 5 μL of 3 nM recombinant human SOS1 and 300 nM BODIPY-GDP in assay buffer. After a 60-minute incubation, the fluorescence was measured with excitation at 337 nm and emission at 490 and 520 nm. The TR-FRET ratio was determined as the fluorescence at 520 nm divided by the fluorescence at 490 nm multiplied by 10,000. […] The normalized TR-FRET results were plotted against compound concentration, and the data fit to a 4-parameter Hill equation to determine the IC50 values.
KRas, sequence (P01116-2 other isoform, or with tags, fused parts or gaps): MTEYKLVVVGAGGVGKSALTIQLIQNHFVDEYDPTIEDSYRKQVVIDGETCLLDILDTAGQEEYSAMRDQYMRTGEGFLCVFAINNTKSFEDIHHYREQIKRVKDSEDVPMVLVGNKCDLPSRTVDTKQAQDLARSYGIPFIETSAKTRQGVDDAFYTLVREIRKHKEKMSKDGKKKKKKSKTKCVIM

KRas(G12V), sequence (P01116-2 other isoform, or with tags, fused parts or gaps G12V): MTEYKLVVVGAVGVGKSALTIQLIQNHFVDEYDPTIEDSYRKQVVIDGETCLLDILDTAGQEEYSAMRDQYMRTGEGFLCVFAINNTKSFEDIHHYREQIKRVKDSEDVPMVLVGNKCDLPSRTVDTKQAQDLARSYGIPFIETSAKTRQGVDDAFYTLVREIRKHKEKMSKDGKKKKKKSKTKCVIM

For the molecule `Cc1cc(N)nc(-c2cc3ncnc4c3c(c2Cl)OCCN4CCC2COC2)c1C(F)(F)F` [Example 14, 6-(8-chloro-4-(2-(oxetan-3-yl)ethyl)-5,6-dihydro-4H-[1,4]oxazepino[5,6,7-de]quinazolin-9-yl)-4-methyl-5-(trifluoromethyl)pyridin-2-amine], the IC50 in assay [1] was 21000 nM; in assay [2], 200000 nM. As to `Cc1cc(N)nc(-c2cc3ncnc4c3c(c2Cl)OCCN4Cc2ccnnc2N)c1C(F)(F)F` [Example 56, 4-((9-(6-amino-4-methyl-3-(trifluoromethyl)pyridin-2-yl)-8-chloro-5,6-dihydro-4H-[1,4]oxazepino[5,6,7-de]quinazolin-4-yl)methyl)pyridazin-3-amine], the IC50 is 22 nM in assay [1] and 160 nM in assay [2]. For `Cc1cc(N)nc(-c2cc3ncnc4c3c(c2Cl)OCCN4Cc2cc(F)cnc2N)c1C(F)(F)F` [Example 31, 6-(4-((2-amino-5-fluoropyridin-3-yl)methyl)-8-chloro-5,6-dihydro-4H-[1,4]oxazepino[5,6,7-de]quinazolin-9-yl)-4-methyl-5-(trifluoromethyl)pyridin-2-amine], in that order: 440 nM and 2800 nM.

For the molecule `Cc1cc(N)nc(-c2c(Cl)c3c4c(nc(OCC56C[C@@H](F)CN5C[C@H](F)C6)nc4c2F)N([C@H](C)c2cccnc2N)CCO3)c1C(F)(F)F` (atropisomer, axis not shown) [Example 98a, 6-((R)-4-((R)-1-(2-aminopyridin-3-yl)ethyl)-8-chloro-2-(((2R,6R)-2,6-difluorotetrahydro-1H-pyrrolizin-7a(5H)-yl)methoxy)-10-fluoro-5,6-dihydro-4H-[1,4]oxazepino[5,6,7-de]quinazolin-9-yl)-4-methyl-5-(trifluoromethyl)pyridin-2-amine], the IC50 is 0.11 nM in assay [1] and 0.557 nM in assay [2].

On to `Cc1cc(N)nc(-c2c(Cl)c3c4c(nc(OC[C@@H]5CCCN5CC(F)F)nc4c2F)N([C@H](C)c2nccnc2N)CCO3)c1C(F)(F)F` (atropisomer, axis not shown) [Example 158a, 3-((R)-1-((R)-9-(6-amino-4-methyl-3-(trifluoromethyl)pyridin-2-yl)-8-chloro-2-(((S)-1-(2,2-difluoroethyl)pyrrolidin-2-yl)methoxy)-10-fluoro-5,6-dihydro-4H-[1,4]oxazepino[5,6,7-de]quinazolin-4-yl)ethyl)pyrazin-2-amine], for which the IC50 amounted to 0.76 nM in assay [1] and 5.41 nM in assay [2]. For `Cc1cc(N)nc(-c2cc3ncnc4c3c(c2Cl)OCCN4Cc2cccc(=O)[nH]2)c1C(F)(F)F` [Example 12, 6-((9-(6-amino-4-methyl-3-(trifluoromethyl)pyridin-2-yl)-8-chloro-5,6-dihydro-4H-[1,4]oxazepino[5,6,7-de]quinazolin-4-yl)methyl)pyridin-2(1H)-one] the same measures were 8900 nM and 21000 nM. For `Cc1cc(N)nc(-c2cc3nc(OC[C@]45CCCN4CC(F)(F)C5)nc4c3c(c2Cl)OCCN4C)c1C(F)(F)F` [Example 7, (R)-6-(8-chloro-2-((2,2-difluorotetrahydro-1H-pyrrolizin-7a(5H)-yl)methoxy)-4-methyl-5,6-dihydro-4H-[1,4]oxazepino[5,6,7-de]quinazolin-9-yl)-4-methyl-5-(trifluoromethyl)pyridin-2-amine], in that order: 420 nM and 2300 nM. For `Cc1cc(N)nc(-c2cc3ncnc4c3c(c2Cl)OCCN4C(C)(C)c2cccnc2N)c1C(F)(F)F` [Example 27, 6-(4-(2-(2-aminopyridin-3-yl)propan-2-yl)-8-chloro-5,6-dihydro-4H-[1,4]oxazepino[5,6,7-de]quinazolin-9-yl)-4-methyl-5-(trifluoromethyl)pyridin-2-amine], the IC50 in assay [1] was determined as 580 nM; in assay [2], 1400 nM. For `Cc1cc(N)nc(-c2c(Cl)c3c4c(nc(OC[C@@H]5CC(F)(F)CN5C)nc4c2F)N([C@H](C)c2cncc(N)c2)CCO3)c1C(F)(F)F` (single isomer, unassigned) [Example 70a], in that order: 0.49 nM and 8.3 nM. For `Cc1cc(N)nc(-c2cc3nc(OC[C@@]45CCCN4CC(F)(F)C5)nc4c3c(c2Cl)OCCN4C)c1C(F)(F)F` [Example 10, (S)-6-(8-chloro-2-((2,2-difluorotetrahydro-1H-pyrrolizin-7a(5H)-yl)methoxy)-4-methyl-5,6-dihydro-4H-[1,4]oxazepino[5,6,7-de]quinazolin-9-yl)-4-methyl-5-(trifluoromethyl)pyridin-2-amine] the same measures were 300 nM and 1300 nM. For `CNc1cnc(N)c([C@@H](C)N2CCOc3c(Cl)c(-c4nc(N)cc(C)c4C(F)(F)F)cc4ncnc2c34)c1` [Example 58, (R)-3-(1-(9-(6-amino-4-methyl-3-(trifluoromethyl)pyridin-2-yl)-8-chloro-5,6-dihydro-4H-[1,4]oxazepino[5,6,7-de]quinazolin-4-yl)ethyl)-N5-methylpyridine-2,5-diamine] the same measures were 18 nM and 34 nM. For the molecule `Cc1cc(N)nc(-c2cc3ncnc4c3c(c2Cl)OCCN4C2(c3cccnc3N)CC2)c1C(F)(F)F` [Example 11, 6-(4-(1-(2-aminopyridin-3-yl)cyclopropyl)-8-chloro-5,6-dihydro-4H-[1,4]oxazepino[5,6,7-de]quinazolin-9-yl)-4-methyl-5-(trifluoromethyl)pyridin-2-amine], the IC50 in assay [1] stood at 1000 nM; in assay [2] it was 14000 nM. For `Cc1cc(N)nc(-c2c(Cl)c3c4c(nc(OC(C)[C@@H]5CC(F)(F)CN5C)nc4c2F)N([C@H](C)c2cccnc2N)CCO3)c1C(F)(F)F` (stereo partly drawn) [Example 71, 6-((R)-4-((R)-1-(2-aminopyridin-3-yl)ethyl)-8-chloro-2-((S)-1-((S)-4,4-difluoro-1-methylpyrrolidin-2-yl)ethoxy)-10-fluoro-5,6-dihydro-4H-[1,4]oxazepino[5,6,7-de]quinazolin-9-yl)-4-methyl-5-(trifluoromethyl)pyridin-2-amine], in that order: 0.53 nM and 6.61 nM.

On to `Cc1cc(N)nc(-c2cc3ncnc4c3c(c2Cl)OCCN4Cc2cncc(N)c2)c1C(F)(F)F` [Example 3, 6-(4-((5-aminopyridin-3-yl)methyl)-8-chloro-5,6-dihydro-4H-[1,4]oxazepino[5,6,7-de]quinazolin-9-yl)-4-methyl-5-(trifluoromethyl)pyridin-2-amine], for which the IC50 came to 540 nM in assay [1] and 2900 nM in assay [2]. For `Cc1cc(N)nc(-c2c(Cl)c3c4c(nc(OC[C@@]56CCCN5CC(F)(F)C6)nc4c2F)N([C@H](C)c2nccnc2N)CCO3)c1C(F)(F)F` (atropisomer, axis not shown) [Example 165b, 3-((R)-1-((S)-9-(6-amino-4-methyl-3-(trifluoromethyl)pyridin-2-yl)-8-chloro-2-(((S)-2,2-difluorotetrahydro-1H-pyrrolizin-7a(5H)-yl)methoxy)-10-fluoro-5,6-dihydro-4H-[1,4]oxazepino[5,6,7-de]quinazolin-4-yl)ethyl)pyrazin-2-amine], in that order: 890 nM and 2000 nM. For `Cc1cc(N)nc(-c2cc3ncnc4c3c(c2Cl)OCCN4Cc2cncc(O)c2)c1C(F)(F)F` [Example 9, 5-((9-(6-amino-4-methyl-3-(trifluoromethyl)pyridin-2-yl)-8-chloro-5,6-dihydro-4H-[1,4]oxazepino[5,6,7-de]quinazolin-4-yl)methyl)pyridin-3-ol], in that order: 10000 nM and 63000 nM. For `Cc1cc(N)nc(-c2c(Cl)c3c4c(nc(OC[C@]56CCCN5CC(F)(F)C6)nc4c2F)N([C@H](C)c2nccnc2N)CCO3)c1C(F)(F)F` (atropisomer, axis not shown) [Example 166b, 3-((R)-1-((S)-9-(6-amino-4-methyl-3-(trifluoromethyl)pyridin-2-yl)-8-chloro-2-(((R)-2,2-difluorotetrahydro-1H-pyrrolizin-7a(5H)-yl)methoxy)-10-fluoro-5,6-dihydro-4H-[1,4]oxazepino[5,6,7-de]quinazolin-4-yl)ethyl)pyrazin-2-amine] the same measures were 640 nM and 1730 nM. As for `Cc1cc(N)nc(-c2c(Cl)c3c4c(nc(OC[C@]56CCCN5CC(F)(F)C6)nc4c2F)N([C@H](C)c2nccnc2N)CCO3)c1C(F)(F)F` (atropisomer, axis not shown) [Example 166a, 3-((R)-1-((R)-9-(6-amino-4-methyl-3-(trifluoromethyl)pyridin-2-yl)-8-chloro-2-(((R)-2,2-difluorotetrahydro-1H-pyrrolizin-7a(5H)-yl)methoxy)-10-fluoro-5,6-dihydro-4H-[1,4]oxazepino[5,6,7-de]quinazolin-4-yl)ethyl)pyrazin-2-amine], the IC50 came out at 0.56 nM in assay [1] and 2.06 nM in assay [2]. The molecule `Cc1cc(N)nc(-c2c(Cl)c3c4c(nc(OC[C@@H]5CCCN5CC(F)F)nc4c2F)N([C@H](C)c2cncnc2N)CCO3)c1C(F)(F)F` (atropisomer, axis not shown) [Example 103a, 5-((R)-1-((R)-9-(6-amino-4-methyl-3-(trifluoromethyl)pyridin-2-yl)-8-chloro-2-(((S)-1-(2,2-difluoroethyl)pyrrolidin-2-yl)methoxy)-10-fluoro-5,6-dihydro-4H-[1,4]oxazepino[5,6,7-de]quinazolin-4-yl)ethyl)pyrimidin-4-amine] had an IC50 in assay [2] of 1.13 nM. That is a single-digit nanomolar value.

In general, IC50 refers to the midpoint of a concentration-inhibition curve. Low values mean greater potency in that assay, high ones weaker potency in that assay.
